The record followed here is patent publication US20230095276A1, “ESTERS OF A RETINOID AND A TOCOPHEROL OR TERT-BUTYLHYDROQUINONE AND PREPARATIONS THEREOF” (Conagen Inc., priority 2021, published 2023).

Common to all, as to assay type: cell-based
The subject of one assay is RAR gamma. Put plainly: RAR gamma agonist reporter cell assay (Gal4 DBD receptor hybrid, luciferase). The settings on record: for Fold Activation: 23 hours, vs DMSO; for agonist activity towards RAR gamma (in words): summary of Table 1. The method, then:
Reporter Cells (Indigo Biosciences, catalog #IB02201, IB02101, IB00821) were used in the assays. The reporter cells expressed a receptor hybrid in which the native N-terminal DNA binding domain (DBD) had been replaced with that of the yeast Gal4 DBD. The reporter gene, firefly luciferase, is functionally linked to the Gal4 upstream activation sequence (UAS). Receptor assays were performed as follows, Steps 1 to 3. Step 1: A suspension of Reporter Cells was prepared in Cell Recovery Medium (CRM: containing charcoal-stripped FBS) and 100 μL of the Reporter Cell suspension was dispensed into each of the wells of a white 96-well assay plate. Step 2: Test and reference compound master stocks were prepared as solutions at 1,000× concentration in DMSO relative to the final treatment concentration. […] The concentration of residual DMSO in all assay wells was 0.1% for the test and reference compounds. Assay plates were incubated at 37° C., 5% CO2 and ˜70% humidity for 23 hours. DMSO control was used to determine background activity. […] Retinol served as positive control. Step 3: Following the incubation period, treatment media were discarded and 100 μL/well of Luciferase Detection Reagent was added per well to determine receptor activity in terms of relative luminescence units (RLUs). Data processing: Fold activation: [Ave RLU Test Cmpd/Ave RLU DMSO].

In a further assay the target is T1, RAR alpha (Homo sapiens, UniProt P10276).
T1 sequence (P10276 183-417 limits assumed): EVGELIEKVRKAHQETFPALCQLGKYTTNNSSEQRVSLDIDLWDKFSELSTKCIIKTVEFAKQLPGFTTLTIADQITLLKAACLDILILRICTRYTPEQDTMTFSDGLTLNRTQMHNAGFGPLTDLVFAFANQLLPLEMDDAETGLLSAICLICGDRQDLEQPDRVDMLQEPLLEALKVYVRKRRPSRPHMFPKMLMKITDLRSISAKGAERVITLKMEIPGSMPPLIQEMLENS
Put plainly: RAR alpha agonist reporter cell assay (Gal4 DBD receptor hybrid, luciferase). As to conditions: for Fold Activation: 23 hours, vs DMSO; for agonist activity towards RAR alpha (in words): summary of Table 1. The method, then: (§1) Reporter Cells (Indigo Biosciences, catalog #IB02201, IB02101, IB00821) were used in the assays. The reporter cells expressed a receptor hybrid in which the native N-terminal DNA binding domain (DBD) had been replaced with that of the yeast Gal4 DBD. The reporter gene, firefly luciferase, is functionally linked to the Gal4 upstream activation sequence (UAS). Receptor assays were performed as follows, Steps 1 to 3.
(§2) Step 1: A suspension of Reporter Cells was prepared in Cell Recovery Medium (CRM: containing charcoal-stripped FBS) and 100 μL of the Reporter Cell suspension was dispensed into each of the wells of a white 96-well assay plate. Step 2: Test and reference compound master stocks were prepared as solutions at 1,000× concentration in DMSO relative to the final treatment concentration. This intermediate stock was subsequently diluted directly into INDIGO Biosciences's Compound Screening Medium (CSM; containing charcoal-stripped FBS) to generate ‘2×-concentration’ treatment media. 100 μL of each prepared treatment medium was dispensed into duplicate assay wells pre-dispensed with a 100 μL suspension of Reporter Cells, thereby achieving the desired final treatment concentrations. The concentration of residual DMSO in all assay wells was 0.1% for the test and reference compounds. Assay plates were incubated at 37° C., 5% CO2 and ˜70% humidity for 23 hours. DMSO control was used to determine background activity. Retinoic acid was used with its EC100 concentration to show 100% activity of each receptor. Retinol served as positive control.
(§3) Step 3: Following the incubation period, treatment media were discarded and 100 μL/well of Luciferase Detection Reagent was added per well to determine receptor activity in terms of relative luminescence units (RLUs). Data processing: Fold activation: [Ave RLU Test Cmpd/Ave RLU DMSO].

In the next assay the target is T2, RAR beta (Homo sapiens, UniProt P10826).
T2 sequence (P10826 183-417 limits assumed): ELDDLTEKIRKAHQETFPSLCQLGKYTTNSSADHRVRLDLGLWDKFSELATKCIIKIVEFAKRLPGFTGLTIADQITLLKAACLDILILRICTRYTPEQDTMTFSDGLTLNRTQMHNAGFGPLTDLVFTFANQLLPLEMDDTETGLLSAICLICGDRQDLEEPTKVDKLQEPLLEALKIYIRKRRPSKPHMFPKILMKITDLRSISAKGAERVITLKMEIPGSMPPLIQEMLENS
Put plainly: RAR beta agonist reporter cell assay (Gal4 DBD receptor hybrid, luciferase). The settings on record: for Fold Activation: 23 hours, vs DMSO; for agonist activity towards RAR beta (in words): summary of Table 1. The method, then: as §1, §2, §3

`CC1=C(/C=C/C(C)=C/C=C/C(C)=C/C(=O)O)C(C)(C)CCC1` [Retinoic acid, reference compound]: the “Fold Activation” value in the assay on RAR gamma (RAR gamma, 0.1 μM) is 706 fold.
Turning to `CC1=C(/C=C/C(C)=C/C=C/C(C)=C/C(=O)Oc2c(C)c(C)c3c(c2C)CCC(C)(CCCC(C)CCCC(C)CCCC(C)C)O3)C(C)(C)CCC1` (racemic) [(±)α-tocopheryl retinoate], the “Fold Activation” value at RAR alpha (RAR alpha, 0.01 μM) amounted to 1.27 fold; on RAR alpha (RAR alpha, 0.1 μM) it was 9.14 fold; at RAR alpha (RAR alpha, 1 μM) it was 552 fold; in the assay with RAR gamma (RAR gamma, 0.01 μM), 1.79 fold; with RAR gamma (RAR gamma, 0.1 μM), 23.8 fold; with RAR gamma (RAR gamma, 1 μM), 365 fold. In addition, the “Fold Activation” value worked out at 0.882 fold at RAR beta (RAR beta, 0.01 μM); 6.33 fold on RAR beta (RAR beta, 0.1 μM); 149 fold on RAR beta (RAR beta, 1 μM). Moreover, the “agonist activity towards RAR alpha (in words)” value on RAR alpha was “exhibited agonist activity”. Moreover, the “agonist activity towards RAR gamma (in words)” value with RAR gamma is given as “exhibited agonist activity”. For the same compound, the “agonist activity towards RAR beta (in words)” value at RAR beta is “exhibited agonist activity”.
With `CC1=C(/C=C/C(C)=C/C=C/C(C)=C/C(=O)Oc2cc(C)c3c(c2)CC[C@@](C)(CCC[C@H](C)CCC[C@H](C)CCCC(C)C)O3)C(C)(C)CCC1` [(+)δ-Tocopheroyl retinoate, (+)δ-tocopheroyl retinoate], the “Fold Activation” value at RAR alpha (RAR alpha, 0.01 μM) is 0.620 fold; on RAR alpha (RAR alpha, 0.1 μM) it was 5.25 fold; at RAR alpha (RAR alpha, 1 μM) it was 251 fold; in the assay with RAR gamma (RAR gamma, 0.01 μM), 1.10 fold; in the assay with RAR gamma (RAR gamma, 0.1 μM) it was 8.45 fold; in the assay on RAR gamma (RAR gamma, 1 μM), 315 fold. Further, the “Fold Activation” value at RAR beta (RAR beta, 0.01 μM) is listed as 1.57 fold; on RAR beta (RAR beta, 0.1 μM) it was 3.96 fold; at RAR beta (RAR beta, 1 μM) it was 53.4 fold. At RAR alpha, the “agonist activity towards RAR alpha (in words)” value was “exhibited agonist activity”. Besides, the “agonist activity towards RAR gamma (in words)” value in the assay with RAR gamma is reported as “exhibited agonist activity”. Further, the “agonist activity towards RAR beta (in words)” value at RAR beta is on record as “exhibited agonist activity”.
In the case of `CC1=C(/C=C/C(C)=C/C=C/C(C)=C/C(=O)Oc2ccc(O)c(C(C)(C)C)c2)C(C)(C)CCC1` [3-tert-Butyl-4-hydroxyphenyl retinoate, 3-tert-butyl-4-hydroxyphenyl retinoate], the “activity compared with retinoic acid” value on RAR alpha (RAR alpha), in the assay on RAR gamma (RAR gamma) and on RAR beta (RAR beta) was “comparable activity to retinoic acid” in each case. Besides, the “Fold Activation” value on RAR alpha (RAR alpha, 0.01 μM) is recorded as 1,573 fold; on RAR alpha (RAR alpha, 0.1 μM), 2,768 fold; on RAR alpha (RAR alpha, 1 μM), 3,414 fold; in the assay with RAR gamma (RAR gamma, 0.01 μM), 541 fold; in the assay with RAR gamma (RAR gamma, 0.1 μM) it was 1,010 fold; in the assay with RAR gamma (RAR gamma, 1 μM), 701 fold. Besides, the “Fold Activation” value at RAR beta (RAR beta, 0.01 μM) came out at 232 fold; on RAR beta (RAR beta, 0.1 μM) it was 287 fold; on RAR beta (RAR beta, 1 μM) it was 331 fold. Further, the “activity compared with retinol” value on RAR alpha (RAR alpha, all tested concentrations) is “higher activity than retinol at all tested concentrations”; in the assay with RAR gamma (RAR gamma, all tested concentrations), “higher activity than retinol at all tested concentrations”; on RAR beta (RAR beta, all tested concentrations), “higher activity than retinol at all tested concentrations”. At RAR alpha, the “agonist activity towards RAR alpha (in words)” value is “exhibited agonist activity”. In addition, the “agonist activity towards RAR gamma (in words)” value in the assay on RAR gamma was “exhibited agonist activity”. The “agonist activity towards RAR beta (in words)” value at RAR beta is recorded as “exhibited agonist activity”.
Take `CC1=C(/C=C/C(C)=C/C=C/C(C)=C/CO)C(C)(C)CCC1` [Retinol, reference compound]: the “Fold Activation” value on RAR alpha (RAR alpha, 0.01 μM) was determined as 1.77 fold; at RAR alpha (RAR alpha, 0.1 μM) it was 6.35 fold; on RAR alpha (RAR alpha, 1 μM), 518 fold; in the assay on RAR gamma (RAR gamma, 0.01 μM), 2.28 fold; in the assay with RAR gamma (RAR gamma, 0.1 μM) it was 18.5 fold; in the assay on RAR gamma (RAR gamma, 1 μM) it was 368 fold. Besides, the “Fold Activation” value was found to be 1.63 fold on RAR beta (RAR beta, 0.01 μM); 4.91 fold on RAR beta (RAR beta, 0.1 μM); 127 fold at RAR beta (RAR beta, 1 μM).
